These results are taken from paper PMC10447463, “Data-mining unveils structure–property–activity correlation of viral infectivity enhancing self-assembling peptides” (Nature Communications, 2023).

Where two headings read alike, the source gives them in different places.

The format of data set [1] is physicochemical. More on the design: key to Fibril / Fibril Formation / TEM 2cat / Fibril: 1 = fibrils present; 0 non-fibrillar structures. To be noted: for Fibril / Fibril Formation: 1 mg/mL, uranyl acetate stain, qualitative.
The nature of data set [2]: Turbidity, derived count rate of scattered light. The format is physicochemical. The note with it: for Count Rate / kcps: derived count rate of scattered light at 633 nm, 173°, from zeta-potential measurement, 0.1 mg/mL in 1 mM KCl after 1 d at 1 mg/mL in PBS, turbidity / microscopic aggregation, mean of triplicate. Summed up:
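Samples: 1 mg/mL in PBS pH 7.4 (from DMSO), 1 d at RT, then diluted in 1 mM KCl immediately before measurement. Triplicates, two independent runs averaged.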

Data set [3] concerns HIV-1 infection of TZM-bl cells. In words: HIV-1 infectivity enhancement assay, β-galactosidase luminescence. The format is cell-based. The note with it: for Rel-EFC / Log10 Infection Rel EFC: 1.3 µM peptide; for Rel-EFC: infection relative to EF-C (QCKIKQIINMWQ = 1); for Log10 Infection Rel EFC: log10 of infection relative to EF-C; for Log Infectivity: Log10 infection relative to EF-C, TZM-bl cells, asymmetric std dev errors; for Log10 Infection Rel EF-C: HIV-1 infection of TZM-bl cells; for Log10 of Rel to EFC (Feb2021): Log10 of infection relative to EF-C, all peptides of FigS16; for Log10 Inf. rel. to EF-C: log10 of HIV-1 infection of TZM-bl cells relative to EF-C (EF-C = 0); for Abs. Inf.: absolute infection signal, HIV-1 on TZM-bl cells, β-galactosidase luminescence.

Setting [4] is: TEM, 1 = fibrils present, 0 = non-fibrillar.
The mark [5] stands for this setting: TEM, 1 = fibrils present, 0 = non-fibrillar structures.
The mark [6] stands for this setting: category: fibrils present or non-fibrillar.
[7] abbreviates: Log10 of derived count rate of scattered light (turbidity).
[8] abbreviates: turbidity, Log10 of derived count rate of scattered light, Figure 3A source data.
Setting [9] is: turbidity, log10 of derived count rate of scattered light.
The mark [10] stands for this setting: Fig. S7 panel A (plotted against β-sheet content).
Setting [11] is: Log10 of infection rate relative to EF-C, Figure 3A source data.
The mark [12] stands for this setting: infection rate relative to EF-C, log10, data of Figure 2D.
Where [13] appears, read: infection rate relative to EF-C, log10, source data of Figure 2C.
Where [14] appears, read: FigS12 panel A, fibril category by TEM.
Setting [15] is: Fig. S7 panel B (plotted against CR), rounded to two decimals.

For the substance KIKIQIN, the “TEM 2cat” value in data set [1] (Fig S10 panel D) and in data set [1] (setting [6]) was 1 each time. Besides, the “Fibril / Fibril Formation” value in data set [1] (TEM) was determined as 1. The Fibril in data set [1] (setting [4]) and in data set [1] (setting [5]) was 1 each time. Also, the “Log10 Count Rate” value in data set [2] (setting [7]), in data set [2] (logarithm of count rate in kcps), in data set [2] (setting [8]) and in data set [2] (setting [9]) was 1.638 each time. In data set [2], the “Count Rate / kcps” value came to 43 kcps. Further, in data set [3], the Rel-EFC is listed as 0,27. The “Log10 Infection Rel EFC” value in data set [3] is on record as -0,58. In addition, the “Log Infectivity” value in data set [3] (setting [10]) is -0.5766. The “Log10 Infection Rel EF-C” value in data set [3] (setting [11]) is on record as -0.58; in data set [3] (setting [12]), -0.5766; in data set [3] (setting [13]) it was -0.5766. For the same substance, the “Log10 of Rel to EFC (Feb2021)” value in data set [3] was -0.58. In data set [3], the “Log10 Inf. rel. to EF-C” value was -0.5766.

Turning to KAKAQA, the “TEM 2cat” value in data set [1] (Fig S10 panel D) and in data set [1] (setting [14]) was 0 in each case. Besides, the Fibril in data set [1] (Fig S10 panel E) was found to be 0; in data set [1] (FigS12 panel B, TEM), 0; in data set [1] (setting [4]) it was 0; in data set [1] (setting [5]), 0. For the same substance, the “Fibril / Fibril Formation” value in data set [1] (TEM) stood at 0. Also, the “Log10 Count Rate” value in data set [2] (setting [7]), in data set [2] (setting [8]) and in data set [2] (setting [9]) was 1.321 in each case. For the same substance, the “Count Rate / kcps” value in data set [2] is 21 kcps. In data set [3], the Rel-EFC is given as 0,02. Moreover, in data set [3], the “Log10 Infection Rel EFC” value is given as -1,74. The results for the “Log Infectivity” value in data set [3] (setting [10]) and in data set [3] (setting [15]) were -1.743 and -1.74, respectively. The “Log10 Infection Rel EF-C” value in data set [3] (setting [11]) is recorded as -1.74; in data set [3] (setting [12]), -1.743; in data set [3] (setting [13]) it was -1.743. Also, the “Log10 Inf. rel. to EF-C” value in data set [3] is reported as -1.743. Further, the “Abs. Infection at 0.26 µM” value in data set [3] (peptide 0.26 µM, mean of n = 3, Figure 4A) was 100. For the same substance, the “Infect 1 0.26 µM” value in data set [3] (peptide 0.26 µM, replicate 1, absolute infection signal, Figure 4A) is reported as -23.33. The “Infect 2 0.26 µM” value in data set [3] (peptide 0.26 µM, replicate 2, absolute infection signal, Figure 4A) is 166.67. Besides, the “Infect 3 0.26 µM” value in data set [3] (peptide 0.26 µM, replicate 3, absolute infection signal, Figure 4A) is 156.67. Also, the “Abs. Infection at 1.3 µM” value in data set [3] (peptide 1.3 µM, mean of n = 3, Figure 4A) turned out to be 146.7. Also, in data set [3] (peptide 1.3 µM, replicate 1, absolute infection signal, Figure 4A), the “Infect 1 .3 µM” value is 126.67. Besides, the “Infect 2 1.3µM” value in data set [3] (peptide 1.3 µM, replicate 2, absolute infection signal, Figure 4A) was 46.67. Besides, the “Infect 3 1.3 µM” value in data set [3] (peptide 1.3 µM, replicate 3, absolute infection signal, Figure 4A) is 266.67.

KIKQIINM: the “TEM 2cat” value in data set [1] (Fig S10 panel D) and in data set [1] (setting [6]) was 1 throughout. In addition, the Fibril in data set [1] (Fig S10 panel E), in data set [1] (setting [4]) and in data set [1] (setting [5]) was 1 throughout. Also, the “Fibril / Fibril Formation” value in data set [1] (TEM) amounted to 1. Besides, the “Log10 Count Rate” value in data set [2] (setting [7]), in data set [2] (setting [8]) and in data set [2] (setting [9]) was 3.395 each time. Besides, in data set [2], the “Count Rate / kcps” value was found to be 2481 kcps. The Rel-EFC in data set [3] is listed as 0,45. In data set [3], the “Log10 Infection Rel EFC” value was -0,35. For the same substance, the “Log Infectivity” value was -0.3458 in data set [3] (setting [10]) and -0.35 in data set [3] (setting [15]). Moreover, the “Log10 Infection Rel EF-C” value in data set [3] (setting [11]) is on record as -0.35; in data set [3] (setting [12]), -0.3458; in data set [3] (setting [13]) it was -0.3458. The “Log10 of Rel to EFC (Feb2021)” value in data set [3] was -0.35. Further, the “Log10 Inf. rel. to EF-C” value in data set [3] is on record as -0.3458.

Regarding MDQMDQMDQMDQMDQ, the “TEM 2cat” value in data set [1] (Fig S10 panel D) and in data set [1] (setting [14]) was 0 in each case. Also, the Fibril in data set [1] (Fig S10 panel E) was 0; in data set [1] (FigS12 panel B, TEM) it was 0; in data set [1] (setting [4]), 0; in data set [1] (setting [5]), 0. For the same substance, the “Fibril / Fibril Formation” value in data set [1] (TEM) was 0. The “Log10 Count Rate” value in data set [2] (setting [7]), in data set [2] (setting [8]) and in data set [2] (setting [9]) was 0.9823 throughout. Also, the “Count Rate / kcps” value in data set [2] was found to be 10 kcps. Further, the Rel-EFC in data set [3] is given as 0. In addition, the “Log10 Infection Rel EFC” value in data set [3] is -2,37. Besides, the “Log Infectivity” value in data set [3] (setting [10]) and in data set [3] (setting [15]) was -2.37 throughout. Also, the “Log10 Infection Rel EF-C” value in data set [3] (setting [11]), in data set [3] (setting [12]) and in data set [3] (setting [13]) was -2.37 throughout. Further, the “Abs. Inf.” value in data set [3] is recorded as 63.33. For the same substance, the “Log10 Inf. rel. to EF-C” value in data set [3] was -2.37.

Regarding KFKQFFNMWQ, the “TEM 2cat” value in data set [1] (Fig S10 panel D) and in data set [1] (setting [14]) was 0 each time. In addition, the Fibril in data set [1] (FigS12 panel B, TEM) worked out at 0; in data set [1] (setting [4]), 0; in data set [1] (setting [5]), 0. Also, the “Fibril / Fibril Formation” value in data set [1] (TEM) came to 0. The “Log10 Count Rate” value in data set [2] (setting [7]), in data set [2] (setting [8]) and in data set [2] (setting [9]) was 2.375 throughout. Besides, in data set [2], the “Count Rate / kcps” value amounted to 237 kcps. For the same substance, the Rel-EFC in data set [3] is recorded as 0,09. Moreover, the “Log10 Infection Rel EFC” value in data set [3] is recorded as -1,05. The “Log Infectivity” value in data set [3] (setting [10]) was -1.0494. Further, the results for the “Log10 Infection Rel EF-C” value in data set [3] (setting [11]), in data set [3] (setting [12]) and in data set [3] (setting [13]) were -1.05, -1.0494 and -1.0494, respectively. The “Abs. Inf.” value in data set [3] turned out to be 1000. The “Log10 Inf. rel. to EF-C” value in data set [3] was -1.0494.

In the case of FKFDKFKFDK, the “TEM 2cat” value in data set [1] (Fig S10 panel D) and in data set [1] (setting [14]) was 0 in each case. Moreover, the Fibril in data set [1] (FigS12 panel B, TEM) worked out at 0; in data set [1] (setting [4]) it was 0; in data set [1] (setting [5]), 0. For the same substance, the “Fibril / Fibril Formation” value in data set [1] (TEM) was determined as 0. In addition, the “Log10 Count Rate” value in data set [2] (setting [7]), in data set [2] (setting [8]) and in data set [2] (setting [9]) was 1.6545 throughout. Moreover, the “Count Rate / kcps” value in data set [2] is given as 45 kcps. Besides, the Rel-EFC in data set [3] was 0,05. Moreover, the “Log10 Infection Rel EFC” value in data set [3] is reported as -1,33. In addition, in data set [3] (setting [10]), the “Log Infectivity” value was -1.334. Further, the “Log10 Infection Rel EF-C” value was -1.33 in data set [3] (setting [11]), -1.334 in data set [3] (setting [12]) and -1.334 in data set [3] (setting [13]). Also, the “Abs. Inf.” value in data set [3] is recorded as 513.3. Also, the “Log10 Inf. rel. to EF-C” value in data set [3] is given as -1.334.

With CETMYDKILKNLSRSR, the “TEM 2cat” value in data set [1] (Fig S10 panel D) and in data set [1] (setting [14]) was 0 each time. Moreover, the Fibril came out at 0 in data set [1] (Fig S10 panel E); 0 in data set [1] (FigS12 panel B, TEM); 0 in data set [1] (setting [4]); 0 in data set [1] (setting [5]). In addition, in data set [1] (TEM), the “Fibril / Fibril Formation” value is reported as 0. The “Log10 Count Rate” value in data set [2] (setting [7]), in data set [2] (setting [8]) and in data set [2] (setting [9]) was 3.041 throughout. Besides, in data set [2], the “Count Rate / kcps” value is 1099 kcps. Besides, in data set [3], the Rel-EFC is on record as 0,02. Also, the “Log10 Infection Rel EFC” value in data set [3] is reported as -1,72. Further, the “Log Infectivity” value in data set [3] (setting [10]) is recorded as -1.716; in data set [3] (setting [15]), -1.72. The “Log10 Infection Rel EF-C” value in data set [3] (setting [11]) is reported as -1.72; in data set [3] (setting [12]), -1.716; in data set [3] (setting [13]) it was -1.716. Further, the “Abs. Inf.” value in data set [3] was determined as 363.3. In addition, in data set [3], the “Log10 Inf. rel. to EF-C” value is on record as -1.716.
